The text below walks through data of patent publication US9809552B2, “Piperazine derivatives as FASN inhibitors” (Merck Patent GmbH, priority 2013, dated 2017).

The target in this assay is T1, human recombinant full-length fatty acid synthase (FASN) (Homo sapiens, UniProt P49327).
T1 construct: human recombinant full-length fatty acid synthase (produced in-house in SF9 cells); made in house; host or cells: SF9 insect cells
Put plainly: Biochemical activity testing of human fatty acid synthase FASN (NADPH fluorescence intensity enzyme assay). As to conditions: 15 min pre-incubation, 30 min reaction at room temperature. The source says:
Biochemical activity testing of human fatty acid synthase FASN
Fatty acid synthase FASN is a multifunctional enzyme with seven catalytic activities thereby synthesising long chain fatty acids especially palmitoyl-CoA in the presence of co-factor NADPH starting from the substrates acetyl-CoA and malonyl-CoA. The reductive synthesis is realized by the oxidation of NADPH to NADP. Since NADPH has a high fluorescence intensity quantum yield compared to NADP with excitation at 340 nm and emission at 460 nm, the reaction can be monitored via the decrease in fluorescence intensity. The biochemical FASN activity testing was performed as 384 well two-time-point kinetic fluorescence intensity assay format in Greiner low volume medium binding 384-well black microtiter plates in a total assay volume of 8 μl and was used for high throughput screen. In each well 3 μl 40 nM human recombinant full-length fatty acid synthase (produced in-house in SF9 cells) were dispensed in the following assay buffer: 50 mM potassium phosphate buffer pH 7.0, 0.005% (w/v) BSA, 2 mM Glutathione, 0.02% Tween-20. Then 2 μl of 200 μM NADPH in assay buffer were added, followed by the addition of the test compounds in 10 dilution concentrations starting with 30 μM (final concentration) to get a final DMSO content of 1% (v/v). The mixture was incubated for at least 15 min at room temperature. After the pre-incubation the enzymatic reaction was started by the addition of 2 μl substrate solution (80 μM acetyl-CoA, 240 μM malonyl-CoA). A first fluorescence intensity measurement (time point one) was performed with an Envision multimode reader (Perkin Elmer LAS Germany GmbH) at excitation wavelength 340 nm (lamp mode) and emission wavelength 460 nm. The reaction was incubated for 30 minutes at room temperature. After this the fluorescence intensity was measured again in the Envision using the same parameters as described above (second time point measurement). The data were analysed by subtracting the first time point measurement value from the second time point measurement value (after the enzymatic reaction). The differences of the emission signals were determined. These reflect directly the conversion rate of NADPH. The full value used was the inhibitor-free reaction. A pharmacological zero value was used like GSK837149A (Sigma-Aldrich) in a final concentration of 5-10 μM. The inhibitory values (IC50) were determined using either the program Symyx Assay Explorer® or Condosseo® from GeneData.

Where only a bound is given, the exact number is not on record here.

T1 sequence (P49327 whole entry): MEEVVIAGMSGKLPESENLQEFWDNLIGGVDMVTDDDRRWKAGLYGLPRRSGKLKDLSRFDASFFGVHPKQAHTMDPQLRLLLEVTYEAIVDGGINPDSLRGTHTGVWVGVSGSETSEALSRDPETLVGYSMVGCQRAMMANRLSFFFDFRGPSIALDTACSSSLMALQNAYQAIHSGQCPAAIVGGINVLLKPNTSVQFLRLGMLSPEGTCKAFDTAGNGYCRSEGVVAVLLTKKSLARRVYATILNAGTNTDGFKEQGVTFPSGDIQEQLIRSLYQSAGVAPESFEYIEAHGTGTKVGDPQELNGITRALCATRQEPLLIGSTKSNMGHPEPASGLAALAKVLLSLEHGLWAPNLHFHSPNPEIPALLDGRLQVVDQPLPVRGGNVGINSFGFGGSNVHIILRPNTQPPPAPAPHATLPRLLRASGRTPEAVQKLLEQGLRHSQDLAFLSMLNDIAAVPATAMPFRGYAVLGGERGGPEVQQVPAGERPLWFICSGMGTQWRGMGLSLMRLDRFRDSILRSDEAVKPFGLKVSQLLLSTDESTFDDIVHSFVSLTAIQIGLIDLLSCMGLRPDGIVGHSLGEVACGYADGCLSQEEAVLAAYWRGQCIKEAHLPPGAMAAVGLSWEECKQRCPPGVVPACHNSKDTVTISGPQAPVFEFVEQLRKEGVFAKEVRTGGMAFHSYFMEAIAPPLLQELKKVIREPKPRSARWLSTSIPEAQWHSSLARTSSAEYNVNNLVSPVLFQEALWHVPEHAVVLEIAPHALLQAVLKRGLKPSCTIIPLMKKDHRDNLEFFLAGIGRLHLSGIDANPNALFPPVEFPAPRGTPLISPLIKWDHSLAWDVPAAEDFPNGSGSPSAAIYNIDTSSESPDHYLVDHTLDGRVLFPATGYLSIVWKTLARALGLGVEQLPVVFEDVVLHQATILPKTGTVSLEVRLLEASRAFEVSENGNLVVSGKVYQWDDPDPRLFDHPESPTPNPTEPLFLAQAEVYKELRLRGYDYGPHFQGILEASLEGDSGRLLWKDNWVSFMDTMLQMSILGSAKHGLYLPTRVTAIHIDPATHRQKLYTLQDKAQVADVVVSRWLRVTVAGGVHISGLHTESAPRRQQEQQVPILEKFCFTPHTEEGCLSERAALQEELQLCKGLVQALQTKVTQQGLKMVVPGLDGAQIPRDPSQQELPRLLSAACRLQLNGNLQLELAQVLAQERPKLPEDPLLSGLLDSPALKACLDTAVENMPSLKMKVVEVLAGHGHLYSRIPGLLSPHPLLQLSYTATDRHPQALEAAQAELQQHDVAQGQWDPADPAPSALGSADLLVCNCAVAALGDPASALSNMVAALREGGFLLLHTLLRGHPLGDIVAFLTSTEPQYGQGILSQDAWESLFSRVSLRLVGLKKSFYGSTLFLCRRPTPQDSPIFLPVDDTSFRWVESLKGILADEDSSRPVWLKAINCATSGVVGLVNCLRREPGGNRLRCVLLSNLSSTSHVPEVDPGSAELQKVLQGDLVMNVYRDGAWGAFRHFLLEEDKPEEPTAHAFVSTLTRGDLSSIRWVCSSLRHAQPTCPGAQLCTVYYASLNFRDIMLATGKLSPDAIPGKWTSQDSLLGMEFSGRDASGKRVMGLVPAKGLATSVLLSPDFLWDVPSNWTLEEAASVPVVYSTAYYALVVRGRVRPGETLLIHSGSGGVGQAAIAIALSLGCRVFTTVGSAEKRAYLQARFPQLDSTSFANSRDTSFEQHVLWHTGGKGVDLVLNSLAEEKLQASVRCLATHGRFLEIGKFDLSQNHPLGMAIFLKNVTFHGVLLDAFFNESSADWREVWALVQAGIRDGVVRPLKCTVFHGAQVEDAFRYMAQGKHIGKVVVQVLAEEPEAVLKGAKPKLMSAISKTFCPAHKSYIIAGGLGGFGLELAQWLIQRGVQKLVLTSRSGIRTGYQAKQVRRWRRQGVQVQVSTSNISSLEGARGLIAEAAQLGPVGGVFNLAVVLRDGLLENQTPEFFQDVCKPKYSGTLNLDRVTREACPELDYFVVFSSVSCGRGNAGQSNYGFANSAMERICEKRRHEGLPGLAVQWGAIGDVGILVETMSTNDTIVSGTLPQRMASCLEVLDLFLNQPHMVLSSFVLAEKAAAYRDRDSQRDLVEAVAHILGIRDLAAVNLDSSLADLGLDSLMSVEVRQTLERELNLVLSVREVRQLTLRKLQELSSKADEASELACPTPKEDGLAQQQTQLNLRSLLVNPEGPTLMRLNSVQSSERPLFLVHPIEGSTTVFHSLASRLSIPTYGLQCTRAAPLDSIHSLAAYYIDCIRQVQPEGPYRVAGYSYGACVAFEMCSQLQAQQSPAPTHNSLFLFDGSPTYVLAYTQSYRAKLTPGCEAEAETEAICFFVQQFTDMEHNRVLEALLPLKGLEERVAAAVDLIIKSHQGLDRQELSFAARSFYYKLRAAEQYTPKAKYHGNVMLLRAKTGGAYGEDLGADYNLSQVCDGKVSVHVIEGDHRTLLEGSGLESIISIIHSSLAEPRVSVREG

As a reminder, the IC50 is the concentration at which inhibition is half-maximal. In the case of `CCC(=O)N1CCN(C(=O)c2ccc(-c3ccc4cnccc4c3)cc2)CC1` [Compound A1, 1-[4-(4-isoquinolin-6-yl-benzoyl)-piperazin-1-yl]-propan-1-one], the IC50 is less than 300 nM.

Take `CC(=O)N1CCN(C(=O)c2ccc(-c3ccc4cnccc4c3)cc2)CC1` [Compound A2, 1-[4-(4-isoquinolin-6-yl-benzoyl)-piperazin-1-yl]ethanone]: the IC50 was in the range of 300 to 3000 nM.

Take `O=C(c1ccc(-c2ccc3cnccc3c2)cc1)N1CCN(C(=O)C2CC2)CC1` [Compound A3, (4-cyclopropanecarbonyl-piperazin-1-yl)-(4-isoquinolin-6-yl-phenyl)-methanone]: the IC50 was less than 300 nM.

Consider `CCCC(=O)N1CCN(C(=O)c2ccc(-c3ccc4cnc(OC)cc4c3)cc2)CC1` [Compound A4, 1-{4-[4-(3-methoxy-isoquinolin-6-yl)-benzoyl]-piperazin-1-yl}-butan-1-one], for which the IC50 is 300 to 3000 nM.

Turning to `CCCCC(=O)N1CCN(C(=O)c2ccc(-c3ccc4cnccc4c3)cc2)CC1` [Compound A5, 1-[4-(4-isoquinolin-6-yl-benzoyl)-piperazin-1-yl]-pentan-1-one], the IC50 is less than 300 nM.

For the compound `CCCC(=O)N1CCN(C(=O)c2ccc(-c3ccc4cnccc4c3)cc2)CC1` [Compound A6, 1-[4-(4-isoquinolin-6-yl-benzoyl)-piperazin-1-yl]-butan-1-one], the IC50 is less than 300 nM.

In the case of `CCC(=O)N1CCN(C(=O)c2ccc(-c3ccc4c[n+]([O-])ccc4c3)cc2)CC1` [Compound A7, 1-{4-[4-(2-oxy-isoquinolin-6-yl)-benzoyl]-piperazin-1-yl}-propan-1-one], the IC50 was less than 300 nM.
